From patent publication US20240316047A1, “INHIBITORS OF RNA HELICASE DHX9 AND USES THEREOF” (ACCENT THERAPEUTICS, INC., priority 2022, published 2024)

Molecular target: Human recombinant DHX9 protein (Homo sapiens (Human), UniProt Q08211)
Assay: DHX9 ATPase assay (ADP-Glo)
Assay type: biochemical
Conditions: for IC50: read-out: DHX9 Biochemical Inflection Point

Human recombinant DHX9 protein, sequence (Q08211 whole entry): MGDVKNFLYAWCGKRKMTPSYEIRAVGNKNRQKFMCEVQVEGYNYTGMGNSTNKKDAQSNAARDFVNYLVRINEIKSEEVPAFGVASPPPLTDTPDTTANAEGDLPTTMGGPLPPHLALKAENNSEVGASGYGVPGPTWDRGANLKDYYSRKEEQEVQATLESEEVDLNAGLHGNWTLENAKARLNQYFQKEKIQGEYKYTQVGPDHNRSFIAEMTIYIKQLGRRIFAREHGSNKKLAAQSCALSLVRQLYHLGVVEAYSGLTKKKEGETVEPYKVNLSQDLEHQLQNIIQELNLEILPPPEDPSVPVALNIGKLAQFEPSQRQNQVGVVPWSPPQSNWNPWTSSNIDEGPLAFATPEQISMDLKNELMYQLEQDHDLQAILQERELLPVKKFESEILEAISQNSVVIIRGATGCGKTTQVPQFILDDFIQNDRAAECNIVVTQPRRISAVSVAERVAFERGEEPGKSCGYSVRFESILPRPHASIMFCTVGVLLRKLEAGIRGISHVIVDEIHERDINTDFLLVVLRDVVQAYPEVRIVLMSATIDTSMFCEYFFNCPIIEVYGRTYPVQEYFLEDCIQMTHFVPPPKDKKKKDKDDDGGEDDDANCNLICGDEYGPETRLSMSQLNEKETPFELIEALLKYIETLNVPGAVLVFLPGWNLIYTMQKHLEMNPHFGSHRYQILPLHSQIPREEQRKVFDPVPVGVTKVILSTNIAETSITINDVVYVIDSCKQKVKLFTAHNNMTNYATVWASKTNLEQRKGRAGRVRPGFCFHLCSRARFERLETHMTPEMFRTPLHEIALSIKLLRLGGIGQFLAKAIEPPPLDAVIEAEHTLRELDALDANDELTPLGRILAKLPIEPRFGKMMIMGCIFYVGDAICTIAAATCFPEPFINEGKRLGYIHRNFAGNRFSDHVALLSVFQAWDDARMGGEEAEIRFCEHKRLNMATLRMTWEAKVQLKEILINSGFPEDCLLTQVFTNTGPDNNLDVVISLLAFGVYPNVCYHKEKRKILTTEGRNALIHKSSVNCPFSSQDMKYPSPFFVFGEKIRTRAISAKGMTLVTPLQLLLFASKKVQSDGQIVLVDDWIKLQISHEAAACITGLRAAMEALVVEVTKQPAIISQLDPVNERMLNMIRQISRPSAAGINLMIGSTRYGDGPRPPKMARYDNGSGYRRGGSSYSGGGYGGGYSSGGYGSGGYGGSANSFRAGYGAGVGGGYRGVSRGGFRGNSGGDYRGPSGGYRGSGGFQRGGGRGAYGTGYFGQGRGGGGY

Compound	DHX9 Biochemical Max Inhibition	IC50
CS(=O)(=O)Nc1cc(Cl)cc(NC(=O)c2cc(C(=O)N3CC4(CNC4)C3)n(-c3ccccn3)c2)c1 [Example 643]	61.4	40.8 nM
Cn1cc(C(=O)Nc2cc(Cl)cc(NS(C)(=O)=O)c2)cc1-c1ncc(N2CCCC2)cn1 [Example 520]	70.8	13.7 nM
CC(C)(C)OC(=O)N1CCC(n2cc(C(=O)Nc3cc(Cl)cc(NS(C)(=O)=O)c3)cn2)CC1 [Example 136]	59.6%	
CS(=O)(=O)Nc1cc(Cl)cc(NC(=O)c2cnn(-c3ncccc3OCc3ccccc3F)c2)c1 [Example 189]	72.1%	32.7 nM
Cc1sc(C(=O)Nc2cc(Cl)cc(NS(C)(=O)=O)c2)cc1-c1ncc(OC(C)C(=O)O)cn1 (stereo not shown) [Example 671]	68.8	6.8 nM
CNC(=O)c1sc(C(=O)Nc2cc(Cl)cc(NS(C)(=O)=O)c2)cc1-c1ncccc1OCc1ccccc1 [Example 212]	72.6%	5.2 nM
CCS(=O)(=O)Nc1cc(Cl)cc(NC(=O)c2cc(-c3ncc(F)cn3)cs2)c1 [Example 343]	54.4%	55.2 nM
CC(C)(O)c1cc(C(=O)Nc2cc(Cl)cc(NS(C)(=O)=O)c2)cn1-c1ccccn1 [Example 650]	80.6	52.4 nM
CS(=O)(=O)Nc1cc(Br)cc(NC(=O)c2cnn(-c3ccccn3)c2)c1 [Example 36, N-(3-bromo-5-(methylsulfonamido)phenyl)-1-(pyridin-2-yl)-1H-pyrazole-4-carboxamide]	56.86%	28 nM
CS(=O)(=O)Nc1cc(Cl)cc(NC(=O)c2cnn(-c3ncc(F)cc3CCc3cccc(F)c3)c2)c1 [Example 251]	64.7%	5200 nM
COc1cc(C(F)(F)F)cnc1-c1cc(C(=O)Nc2cc(Cl)cc(NS(C)(=O)=O)c2)sc1C [Example 550]	99.8	25 nM
Cn1cc(C(=O)Nc2cc(Cl)cc(NS(C)(=O)=O)c2)cc1-c1ncc(F)cc1OCc1nnnn1C [Example 625]	87.8	12.6 nM
Cc1cc(C(=O)Nc2cc(Cl)cc(NS(C)(=O)=O)c2)cn1-c1ccc(N2CCC2)cn1 [Example 397]	77.2	10.2 nM
CS(=O)(=O)Nc1cc(Cl)cc(NC(=O)c2cnn(C3CCOC3)c2)c1 (stereo not shown) [Example 182]	73.4%	181 nM
Cc1cc(C(=O)Nc2cc(Cl)cc(NS(C)(=O)=O)c2)cn1-c1ncc(N2CCOCC2)cc1F [Example 412]	72.2	10.5 nM
Cc1sc(C(=O)Nc2cc(Cl)cc(NS(C)(=O)=O)c2)nc1-c1ccc(F)cn1 [Example 716]	55.9	128 nM
CS(=O)(=O)Nc1cc(Cl)cc(NC(=O)c2cc3c(F)cccn3c2)c1 [Example 305]	63.8%	95.3 nM
Cc1ccc(C(=O)Nc2cc(Br)cc(NS(C)(=O)=O)c2)cc1-n1cccn1 [Example 10]	61%	133 nM
CS(=O)(=O)Nc1cc(Cl)cc(NC(=O)c2cnn(-c3ncccc3S(C)(=O)=O)c2)c1 [Example 199]	73.4%	84.4 nM
CS(=O)(=O)Nc1cc(Cl)cc(NC(=O)c2cnn(-c3ccccc3Oc3cccnc3)c2)c1 [Example 264]	56.7%	119 nM
CS(=O)(=O)Nc1cc(Cl)cc(NC(=O)c2cc(N3CCOC3=O)cs2)c1 [Example 433]	71.2	24.1 nM
Cc1cc(N2CCC(F)(F)CC2)cnc1-c1cc(C(=O)Nc2cc(Cl)cc(NS(C)(=O)=O)c2)cn1C [Example 600]	79.3	41.6 nM
CCOc1cnc(-c2cc(C(=O)Nc3cc(Cl)cc(NS(C)(=O)=O)c3)cn2C)c(F)c1 [Example 453]	90.7	12.2 nM
CC(C)(C)OC(=O)N1CC2(CC(n3cc(C(=O)Nc4cc(Cl)cc(NS(C)(=O)=O)c4)cn3)C2)C1 [Example 144, tert-butyl 6-(4-((3-chloro-5-(methylsulfonamido)phenyl)carbamoyl)-1H-pyrazol-1-yl)-2-azaspiro[3.3]heptane-2-carboxylate]	65.1%	224 nM
Cc1cc(C(=O)Nc2cc(Cl)cc(NS(=O)(=O)C3CC3)c2)cn1-c1ccc(N2CCOCC2)cn1 [Example 247]	70%	131 nM
CS(=O)(=O)Nc1cc(Cl)cc(NC(=O)c2cnn(-c3ncccc3Oc3cccc(F)c3)c2)c1 [Example 427]	58.4	122 nM

Compound	DHX9 Biochemical Max Inhibition	IC50
CS(=O)(=O)Nc1cc(Cl)cc(NC(=O)c2c[nH]c(-c3ccccc3)n2)c1 [Example 6]	52.5%	91.7 nM
CS(=O)(=O)Nc1cc(Cl)cc(NC(=O)c2cc(-c3ccccc3)c[nH]2)c1 [Example 8]	54.4%	395 nM
COCc1ccc(-c2cc(C(=O)Nc3cc(Cl)cc(NS(C)(=O)=O)c3)cn2C)nc1 [Example 574]	80.6	7.5 nM
Cc1cc(C(=O)Nc2cc(F)cc(NS(C)(=O)=O)c2)c[nH]1 [Example 5]	74.6%	215 nM
CCn1nc(C(=O)Nc2cc(F)cc(NS(C)(=O)=O)c2)cc1C [Example 119, 1-ethyl-N-(3-fluoro-5-(methylsulfonamido)phenyl)-5-methyl-1H-pyrazole-3-carboxamide]	82.1%	1160 nM
CN(C)C(=O)c1sc(C(=O)Nc2cc(Cl)cc(NS(C)(=O)=O)c2)cc1-c1ncccc1OCc1ccccc1 [Example 213]	71.6%	16.4 nM
Cn1cc(C(=O)Nc2cc(Cl)cc(NS(C)(=O)=O)c2)cc1-c1ncccc1OCc1cncc(F)c1 [Example 174, N-(3-chloro-5-(methylsulfonamido)phenyl)-5-(3-((5-fluoropyridin-3-yl)methoxy)pyridin-2-yl)-1-methyl-1H-pyrrole-3-carboxamide]	75.8%	1.8 nM
COCc1sc(C(=O)Nc2cc(Cl)cc(NS(C)(=O)=O)c2)cc1-c1ccccn1 [Example 234]	84.6%	9.5 nM
CC(C)C(=O)N1CCN(c2ccc(-n3cc(C(=O)Nc4cc(Cl)cc(NS(C)(=O)=O)c4)cn3)nc2)CC1 [Example 149, N-(3-chloro-5-(methylsulfonamido)phenyl)-1-(5-(4-isobutyrylpiperazin-1-yl)pyridin-2-yl)-1H-pyrazole-4-carboxamide]	65.4%	19.9 nM
CCS(=O)(=O)Nc1cc(Cl)cc(NC(=O)c2cc(-c3ccc(F)cn3)c(C)s2)c1 [Example 346]	73%	25.7 nM
Cc1sc(C(=O)Nc2cc(Cl)cc(NS(C)(=O)=O)c2)cc1-c1ncc(F)cc1F [Example 349]	76.4%	23.7 nM
CCS(=O)(=O)Nc1cc(Cl)cc(NC(=O)c2cc(-c3ncc(F)cn3)c(C3CC3)s2)c1 [Example 449]	69.5	336 nM
CS(=O)(=O)Nc1cc(F)cc(NC(=O)c2cc(Br)cs2)c1 [Example 71, 4-bromo-N-(3-fluoro-5-(methylsulfonamido)phenyl)thiophene-2-carboxamide]	77.8%	171 nM
CCS(=O)(=O)Nc1cc(Cl)cc(NC(=O)c2cc(-c3ncc(OC)cc3F)c(C)s2)c1 [Example 360]	56.5%	40.9 nM
CS(=O)(=O)Nc1cc(Br)cc(NC(=O)c2cnn(-c3ncccc3N)c2)c1 [Example 162, 1-(3-aminopyridin-2-yl)-N-(3-bromo-5-(methylsulfonamido)phenyl)-1H-pyrazole-4-carboxamide]	60.5%	19.7 nM
COc1cc(N2CC(F)(F)C2)cnc1-c1cc(C(=O)Nc2cc(Cl)cc(NS(C)(=O)=O)c2)cn1C [Example 462]	82.4	9.1 nM
CCOc1cnn(-c2cc(C(=O)Nc3cc(Cl)cc(NS(C)(=O)=O)c3)sc2C)c1 [Example 438]	66.9	5.8 nM
CS(=O)(=O)Nc1cc(Cl)cc(NC(=O)c2cnn(-c3ncccc3C#N)c2)c1 [Example 46]	57.2%	47.3 nM
CCS(=O)(=O)Nc1cc(Cl)cc(NC(=O)c2cc(C)n(-c3ncc(N4CC(F)(F)C4)cn3)c2)c1 [Example 423]	74.2	21.6 nM
Cc1cc(C(=O)Nc2cc(Cl)cc(NS(C)(=O)=O)c2)cn1-c1ncc(F)cc1F [Example 444]	72.9	39.1 nM
CS(=O)(=O)Nc1cc(Cl)cc(NC(=O)c2cc(-c3ncc(N4CC(F)(F)C4)cn3)cs2)c1 [Example 486]	61.7	17.9 nM
COC1CCN(c2cc(F)cnc2-c2cc(C(=O)Nc3cc(Cl)cc(NS(C)(=O)=O)c3)sc2C)C1 (stereo not shown) [Example 505]	54.3	46.4 nM
CS(=O)(=O)Nc1cc(Cl)cc(NC(=O)c2cc(C(=O)N3CCN(CC(F)(F)F)CC3)n(-c3ccccn3)c2)c1 [Example 649]	67.6	50.3 nM
CS(=O)(=O)Nc1cc(Br)cc(NC(=O)c2cnn(-c3ncccn3)c2)c1 [Example 50, N-(3-bromo-5-(methylsulfonamido)phenyl)-1-(pyrimidin-2-yl)-1H-pyrazole-4-carboxamide]	55.5%	45 nM
CS(=O)(=O)Nc1cc(Cl)cc(NC(=O)c2cnn(-c3ncc(F)cc3OCc3cccc(F)c3)c2)c1 [Example 202]	72.3%	12.7 nM
Cc1sc(C(=O)Nc2cc(Cl)cc(NS(C)(=O)=O)c2)cc1-c1ncc(OCC(F)(F)F)cn1 [Example 706]	96.1	19.6 nM
